Laboratory results reported in patent US20110136768A1 (THE GENERAL HOSPITAL CORPORATION, priority 2008, published 2011).
Counter-ions that a name gives are not always drawn.

Key:
patients with NSF [1] = assay: Skin biopsy histology before and after IM (hematoxylin & eosin, type I procollagen staining); assay type: in vivo, human
Description: FIG. 2 (A and B) are photographs of skin biopsies from Patient 1 before (FIG. 2A) and after 15 weeks (FIG. 2B) of treatment with IM, at similar magnification and under equivalent lighting. […] (hematoxylin & eosin staining, 12.5× total magnification). The grey line in each panel identifies the level of the eccrine ducts, structures that occur at a relatively uniform depth in a particular region of the body.
FIG. 3 (A and B) are photographs of skin biopsies from Patient 1 before (FIG. 3A) and after 15 weeks (FIG. 3B) of treatment with IM, at similar magnification and under equivalent lighting. […] (type I procollagen immunohistochemical staining, 12.5× magnification) The grey line in each panel identifies the level of the eccrine ducts.
Skin biopsies performed both before and after initial dosing of Patient 1 with IM were compared. Both specimens were obtained from the same anatomic area, with the second biopsy taken immediately adjacent to the resolved scar from the prior procedure, but each biopsy had been performed using different technique (The first biopsy was an excisional biopsy, the second was a punch biopsy). […] Furthermore, in the specimen obtained after IM treatment, fewer type I procollagen^+ cells were present in the upper dermis (FIG. 3B). The second biopsy contained 124 ppm (μg/g, dry weight) of gadolinium, essentially unchanged from that of the pretreatment biopsy (High et al.: Gadolinium is quantifiable within the tissue of patients with nephrogenic systemic fibrosis, J Am Acad Dermatol 2007).

patients with NSF [2] = assay: Skin involvement by modified Rodnan skin score (mRSS) in treated NSF patients; assay type: in vivo, human
Method: (§1) Two patients diagnosed with NSF that was associated with gadolinium exposure were assessed and treated with orally administered imatinib mesylate over an extended period of time. Their progress was assessed as were any side effects of the treatment.
They were offered treatment with imatinib mesylate. […] Shortly thereafter, […] PD catheter stopped functioning and they began to undergo HD.
To determine whether a higher dose of IM might yield further improvement in their skin changes, their daily dose was increased from 400 mg to 600 mg at the end of January 2007. Because of a hospitalization in February 2007, for evaluation and treatment of chronic gastrointestinal bleeding, they stopped taking IM for 2 weeks. They resumed taking daily oral IM 600 mg, one week later, but they again stopped taking it after 6 days, when they underwent elective surgical repair of an abdominal hernia. They once again resumed taking oral IM 400 mg daily in May 2007. However, because of difficulty controlling their INR, they discontinued IM two weeks later. Off of IM, their Coumadin anticoagulation has been managed more easily.
Skin involvement was assessed using the modified version of the Rodnan skin score (mRSS). The same examiner evaluated each patient at each visit. Seventeen skin sites were evaluated: the face, upper arms, […], dorsum of the hands, fingers, chest, abdomen, thighs, […], and feet. Each site was graded: 0=normal skin, 1=thickened skin, 2=thickened and unable to pinch, or 3=thickened and unable to move. The maximum total score is 51.

patients with NSF [3] = assay: Adverse effects in the two treated NSF patients; assay type: in vivo, human; details: both patients
Method: as §1
Patient 1 developed gastrointestinal upset that resolved when corticosteroid replacement with 7.5 mg/day oral prednisone was initiated to treat adrenal insufficiency 17 weeks after re-initiation of IM, despite continuation of IM.

patients with NSF [4] = assay: Knee joint flexion contracture measured with a goniometer in treated NSF patients; assay type: in vivo, human
Method: as §1
Loss of knee joint extension (flexion contracture) was assessed by measuring maximal passive knee extension, with the patient in a supine position, using a goniometer. The center of the goniometer was placed at the lateral femoral condyle, with the proximal arm positioned along the longitudinal axis of the femur and the distal arm aligned with the long axis of the tibia. Measurements were rounded to the nearest multiple of 5 degrees. Although flexion contractures appeared symmetric in both patients, the knee with the greater flexion contracture at baseline was assessed for change at subsequent visit.

patients with NSF [5] = details: two patients; cited from earlier work

SMILES | staining for type I procollagen in skin biopsy (patients with NSF [1]; Patient 1, after 15 weeks of IM versus before) | fibrosis in skin biopsy (patients with NSF [1]; Patient 1, after 15 weeks of IM versus before, hematoxylin & eosin) | type I procollagen+ cells in the upper dermis (patients with NSF [1]; Patient 1, after IM treatment versus before) | mRSS (patients with NSF [2]; Patient 1, after oral IM 400 mg daily over 15 weeks) | mRSS (patients with NSF [2]; Patient 1, after subsequent 9 weeks without IM) | mRSS (patients with NSF [2]; Patient 1, baseline before oral IM 400 mg daily, maximum total score 51) | mRSS (patients with NSF [2]; Patient 1, within 5 weeks of resuming oral IM 400 mg daily (from 33)) | mRSS (patients with NSF [2]; Patient 2, baseline before oral IM 400 mg daily) | mRSS (patients with NSF [2]; Patient 2, while taking oral IM 400 mg daily) | mRSS (patients with NSF [2]; Patient 2, within 5 weeks of stopping IM) | congestive heart failure (patients with NSF [3]) | adverse effect related to IM (patients with NSF [3]; corrected by dialysis treatment) | knee joint flexion contractures (patients with NSF [4]; Patient 1, off IM for 9 weeks, both knees) [°] | knee joint flexion contractures (patients with NSF [4]; Patient 1, week 6 of IM, with physical therapy) [°] | knee joint flexion contractures (patients with NSF [4]; Patient 1, week 15 of IM, with physical therapy) [°] | knee joint flexion contractures (patients with NSF [4]; Patient 2, after discontinuing IM, none when they began IM) | skin thickening and joint mobility (patients with NSF [5])
Cc1ccc(NC(=O)c2ccc(CN3CCN(C)CC3)cc2)cc1Nc1nccc(-c2cccnc2)n1 [imatinib mesylate] | less staining for type I procollagen | less fibrosis | fewer | 16 | 33 | 42 | 10 | 12 | 2 | 15 | Neither patient developed congestive heart failure | fluid retention | 25 | 25 | 10 | knee joint flexion contractures developed that gradually progressed over time | –
CC(=O)CCCCn1c(=O)c2c(ncn2C)n(C)c1=O [pentoxyphyline] | – | – | – | – | – | – | – | – | – | – | – | – | – | – | – | – | Decreased skin thickening and improved joint mobility
